Measurements published in patent US20250257045A1, “CAGED GLUTAMATE UNLEASHED BY BLUE AND GREEN LIGHT: INNOVATIVE PHOTOSENSITIVE CONTROL” (Florida Institute of Technology, Inc., priority 2024, published 2025).

Experiments:
[1] = Photolysis (uncaging) kinetics under blue/green LED irradiation; quantum yield by UV and 1H NMR with ferrioxalate actinometry; format: physicochemical; settings: for Φ (quantum yield / QE of uncaging): irradiation at 467 nm (TC) or 520 nm (BODIPY), LED flux 12.8 Wm-2, 23° C.; for εΦ (photo-cross-section): product of ε and Φ; for wavelength of visible light that activates / uncages the cage: single photon visible light
Description: (§1) After purification, the organic solvent was removed by rotovap under vacuum and the remaining aqueous concentrate was subjected to a freeze-drying system (lyophilizer-Freezone 4.5 made by LABCONCO) to isolate the purified final product. The preparation of the caged compounds and their corresponding purifications were conducted under red light in the dark. Final products were covered with aluminum foil and stored at −20° C. until further needed. Each product was characterized by Proton Nuclear Magnetic Resonance (hereinafter “1H NMR”) and Carbon-13 Nuclear Magnetic Resonance (hereinafter “^13C NMR”) using Bruker 400 MHZ NMR spectrometer instrumentation. NMR solvents such as CDCl3 and (CD3)2CO were purchased from the Cambridge Isotope Laboratories. Chemical shifts were reported relative to the internal standard peak of tetramethylsilane (TMS). […] Referring to FIG. 10, irradiation rigs constructed of two round metal containers stacked with blue LED strips (467 nm) and green LED strips (520 nm) on their inner walls were used as photoreactors to irradiate the caged molecules in photochemical studies. The light flux was determined using liquid-phase potassium ferrioxalate actinomentry.
The inventors studied the kinetics of uncaging of the two caged Glu designs (TC and BODIPY) and compared their efficiency of uncaging under identical conditions. They were irradiated with blue light at 467 nm and green light at 520 nm, respectively. Referring to FIG. 10, a temperature-controlled rig with purchased LED strips was set up.
The process for conducting the irradiation experiments comprised the following:
Sample Preparation: The caged molecules (containing the BODIPY photocage and Glutamate) were prepared in a solvent at a predetermined concentration. The solution was carefully prepared to ensure uniform dispersion of the molecules.
Irradiation Setup: The irradiation experiments were performed in a custom-built irradiation chamber equipped with the necessary safety measures (FIG. 10). The chamber was designed to prevent any unwanted exposure to the irradiation source and to maintain a controlled environment throughout the experiment.
Irradiation Source: The irradiation source used was from LED light Strips. This source was selected based on its wavelength range, intensity, and compatibility with the caged molecules' photochemistry. The source was positioned within the irradiation chamber to ensure an even and consistent illumination of the sample.
Sample Exposure: The sample solution was placed in a suitable container, ensuring that the solution thickness was uniform to minimize potential variations in the irradiation process. The container was positioned at a specific distance from the irradiation source, and the entire setup was shielded from external light sources to prevent interference.
Irradiation Protocol: The sample was irradiated for a predetermined duration, with the irradiation source emitting light at the desired wavelength range. The irradiation time was carefully controlled to maintain consistency across experiments.
Monitoring and Data Collection: Throughout the irradiation process, the changes in the sample's properties were monitored using spectroscopic techniques such as UV-Vis spectroscopy and NMR spectroscopy, depending on the specific properties being investigated. Data was collected at regular intervals to track the progress of the photochemical reaction.
Control Experiments: To validate the effects of irradiation, control experiments were conducted using identical conditions but without the presence of the caged molecules.
The quantification of the laser flux comprised the following:
A liquid-phase potassium ferrioxalate actinometer was prepared to measure the intensity of light in our irradiation rig, i.e., light flux, necessary for measurement of the quantum yields of various photochemical reactions.

[2] = UV-Vis absorption of caged Glu compounds; format: physicochemical; settings: for λMax: maximum absorbance wavelength; for ε(λMax): molar attenuation constant at λMax
Description: as §1
Referring to FIG. 6, a comprehensive assessment of 11 visible light-activated caged Glutamate (Glu) compounds was conducted using photophysical methods.

[3] = prior art caged Glu; cited from earlier work

Compound: 7-Diethylamino-4-carboxylmethyl-thiocoumarin glutamate [TC-N-Glu (1)]
- Φ (quantum yield / QE of uncaging) [1]: 0.0017 ± 0.0002
- εΦ (photo-cross-section) [1]: 38.2 M⁻¹ cm⁻¹
- wavelength of visible light that activates / uncages the cage [1]: 445 nm
- λMax [2]: 461 nm
- ε(λMax) [2]: 21800 ± 100 M⁻¹ cm⁻¹

Compound: N[C@@H](CCC(=O)N1CCc2c(OCC(=O)O)c([N+](=O)[O-])cc([N+](=O)[O-])c21)C(=O)O [CDNI-Glu]
- absorption maximum [3]: 350 nm
- quantum yield (Φ) [3]: 0.5

Compound: CC1=C(Br)C(C)=[N+]2C1=C(COC(=O)CCC(N)C(=O)O)c1c(C)c(Br)c(C)n1[B-]2(F)F (centres unmarked) [F-BODIPY-Br-Glu (11), 2-Amino-5-((2,8-dibromo-5,5-difluoro-1,3,7,9-tetramethyl-5H-414,514-dipyrrolo[1,2-c: 2′, 1′-f] [1,3,2]diazaborinin-10-yl)methoxy)-5-oxopentanoic acid]
- Φ (quantum yield / QE of uncaging) [1]: 0.0004 ± 0.00001
- εΦ (photo-cross-section) [1]: 4.2 M⁻¹ cm⁻¹
- λMax [2]: 544 nm
- ε(λMax) [2]: 10300 ± 80 M⁻¹ cm⁻¹

Compound: CCC1=C(C)C2=C(COC(=O)CCC(N)C(=O)O)c3c(C)c(CC)c(C)n3[B-](F)(F)[N+]2=C1C (centres unmarked) [F-BODIPY-Et-Glu (10), 2-Amino-5-((2,8-diethyl-5,5-difluoro-1,3,7,9-tetramethyl-5H-414,514-dipyrrolo[1,2-c: 2′, 1′-f] [1,3,2]diazaborinin-10-yl)methoxy)-5-oxopentanoic acid]
- Φ (quantum yield / QE of uncaging) [1]: 0.0077 ± 0.0004
- εΦ (photo-cross-section) [1]: 439.0 M⁻¹ cm⁻¹
- λMax [2]: 542 nm
- ε(λMax) [2]: 57200 ± 280 M⁻¹ cm⁻¹

Compound: CCC1=C(C)C2=C(COC(=O)NC(CCC(=O)O)C(=O)O)c3c(C)c(CC)c(C)n3[B-](F)(F)[N+]2=C1C (centres unmarked) [F-BODIPY-Et-N-Glu (5), (((2,8-Diethyl-5,5-difluoro-1,3,7,9-tetramethyl-5H-414,514-dipyrrolo[1,2-c: 2′, 1′-f] [1,3,2]diazaborinin-10-yl)methoxy)carbonyl) glutamic acid]
- Φ (quantum yield / QE of uncaging) [1]: 0.0001 ± 0.00001
- εΦ (photo-cross-section) [1]: 10.9 M⁻¹ cm⁻¹
- λMax [2]: 542 nm
- ε(λMax) [2]: 78300 ± 400 M⁻¹ cm⁻¹

Compound: CC1=CC(C)=[N+]2C1=C(COC(=O)CCC(N)C(=O)O)c1c(C)cc(C)n1[B-]2(F)F (centres unmarked) [F-BODIPY-H-Glu (9), 2-Amino-5-((5,5-difluoro-1,3,7,9-tetramethyl-5H-414,514-dipyrrolo[1,2-c: 2′, 1′-f] [1,3,2]diazaborinin-10-yl)methoxy)-5-oxopentanoic acid]
- Φ (quantum yield / QE of uncaging) [1]: 0.0001 ± 0.00002
- εΦ (photo-cross-section) [1]: 4.7 M⁻¹ cm⁻¹
- λMax [2]: 517 nm
- ε(λMax) [2]: 84600 ± 500 M⁻¹ cm⁻¹

Compound: CC1=C(Br)C(C)=[N+]2C1=C(COC(=O)CCC(N)C(=O)O)c1c(C)c(Br)c(C)n1[B-]2(C)C (centres unmarked) [Me-BODIPY-Br-Glu (8), 2-Amino-5-((2,8-dibromo-1,3,5,5,7,9-hexamethyl-5H-414,514-dipyrrolo[1,2-c: 2′, 1′-f] [1,3,2]diazaborinin-10-yl)methoxy)-5-oxopentanoic acid]
- Φ (quantum yield / QE of uncaging) [1]: 0.65 ± 0.01
- Φ (quantum yield / QE of uncaging) [1]; 8: 0.65
- Φ (quantum yield / QE of uncaging) ([1]; listed as Me-BODIPY-Br-Glu): 0.65
- εΦ (photo-cross-section) [1]: 35230.0 M⁻¹ cm⁻¹
- wavelength of visible light that activates / uncages the cage [1]: 540 nm
- λMax [2]: 531 nm
- ε(λMax) [2]: 54200 ± 240 M⁻¹ cm⁻¹

Compound: CC1=C(Br)C(C)=[N+]2C1=C(COC(=O)NC(CCC(=O)O)C(=O)O)c1c(C)c(Br)c(C)n1[B-]2(C)C (centres unmarked) [Me-BODIPY-Br-N-Glu (3), (((2,8-Dibromo-1,3,5,5,7,9-hexamethyl-5H-414,514-dipyrrolo[1,2-c: 2′, 1′-f] [1,3,2]diazaborinin-10-yl)methoxy)carbonyl) glutamic acid]
- Φ (quantum yield / QE of uncaging) [1]: 0.12 ± 0.04
- εΦ (photo-cross-section) [1]: 985.6 M⁻¹ cm⁻¹
- λMax [2]: 532 nm
- ε(λMax) [2]: 8213 ± 50 M⁻¹ cm⁻¹

Compound: CCC1=C(C)C2=C(COC(=O)CCC(N)C(=O)O)c3c(C)c(CC)c(C)n3[B-](C)(C)[N+]2=C1C (centres unmarked) [Me-BODIPY-Et-Glu (7), 2-Amino-5-((2,8-diethyl-1,3,5,5,7,9-hexamethyl-5H-414,514-dipyrrolo[1,2-c: 2′, 1′-f] [1,3,2]diazaborinin-10-yl)methoxy)-5-oxopentanoic acid]
- Φ (quantum yield / QE of uncaging) [1]: 0.029 ± 0.001
- εΦ (photo-cross-section) [1]: 1040.0 M⁻¹ cm⁻¹
- λMax [2]: 532 nm
- ε(λMax) [2]: 35700 ± 180 M⁻¹ cm⁻¹

Compound: CCC1=C(C)C2=C(COC(=O)NC(CCC(=O)O)C(=O)O)c3c(C)c(CC)c(C)n3[B-](C)(C)[N+]2=C1C (centres unmarked) [Me-BODIPY-Et-N-Glu (2), (((2,8-Diethyl-1,3,5,5,7,9-hexamethyl-5H-414,514-dipyrrolo[1,2-c: 2′, 1′-f] [1,3,2]diazaborinin-10-yl)methoxy)carbonyl) glutamic acid]
- Φ (quantum yield / QE of uncaging) [1]: 0.095 ± 0.003
- εΦ (photo-cross-section) [1]: 2270.0 M⁻¹ cm⁻¹
- λMax [2]: 532 nm
- ε(λMax) [2]: 24000 ± 120 M⁻¹ cm⁻¹

Compound: CC1=CC(C)=[N+]2C1=C(COC(=O)CCC(N)C(=O)O)c1c(C)cc(C)n1[B-]2(C)C (centres unmarked) [Me-BODIPY-H-Glu (6), 2-Amino-5-((1,3,5,5,7,9-hexamethyl-5H-414,514-dipyrrolo[1,2-c: 2′, 1′-f] [1,3,2]diazaborinin-10-yl)methoxy)-5-oxopentanoic acid]
- Φ (quantum yield / QE of uncaging) [1]: 0.074 ± 0.002
- εΦ (photo-cross-section) [1]: 3230.0 M⁻¹ cm⁻¹
- λMax [2]: 511 nm
- ε(λMax) [2]: 43600 ± 200 M⁻¹ cm⁻¹

Compound: CC1=C(I)C(C)=[N+]2C1=C(COC(=O)NC(CCC(=O)O)C(=O)O)c1c(C)c(I)c(C)n1[B-]2(C)C (centres unmarked) [Me-BODIPY-I-N-Glu (4), (((2,8-Diiodo-1,3,5,5,7,9-hexamethyl-5H-414,514-dipyrrolo[1,2-c: 2′, 1′-f] [1,3,2]diazaborinin-10-yl)methoxy)carbonyl) glutamic acid]
- Φ (quantum yield / QE of uncaging) [1]: 0.15 ± 0.01
- εΦ (photo-cross-section) [1]: 1504.6 M⁻¹ cm⁻¹
- λMax [2]: 536 nm
- ε(λMax) [2]: 10030 ± 70 M⁻¹ cm⁻¹
